Reference: ChEMBL document CHEMBL3046378, “3-(6-Chloronicotinyl)-2-nitromethylene-thiazolidine as a New Class of Insecticide Acting against Lepidoptera Species” (1992)
Active and inactive are the calls of the source. No cut-off for these calls is given here.

Legend:
Nephotettix cincticeps = assay: Insecticidal activity against Nephotettix cincticeps (green rice leafhopper) measured 5 days after artificial infestation; assay type: functional
Spodoptera litura [1] = assay: Insecticidal activity against Spodoptera litura measured 5 days after artificial infestation; assay type: functional
Plutella xylostella = assay: Insecticidal activity against Plutella xylostella (diamondback moth) measured 5 days after artificial infestation; assay type: functional
Cnaphalocrocis medinalis = assay: Insecticidal activity against Cnaphalocrocis medinalis measured 5 days after artificial infestation; assay type: functional
Spodoptera litura [2] = assay: Insecticidal activity against Spodoptera litura at 1000 ppm measured 5 days after artificial infestation; assay type: functional, organism-based

| Compound | LC90 (Nephotettix cincticeps) [ppm] | LC90 (Spodoptera litura [1]) [ppm] | LC90 (Plutella xylostella) [ppm] | LC90 (Cnaphalocrocis medinalis) [ppm] | Activity (Spodoptera litura [2]) |
| --- | --- | --- | --- | --- | --- |
| O=[N+]([O-])/C=C1\SCCN1Cc1ccc(Cl)nc1 | 0.32 | 1.6 | 1.6 | 8 | – |
| O=[N+]([O-])/C=C1\OCCN1Cc1ccc(Cl)nc1 | 8 | 1000 | – | – | – |
| O=[N+]([O-])C=C1NCCCS1 | 8 | 40 | 1000 | 200 | – |
| O=[N+]([O-])/N=C1\SCCN1Cc1ccc(Cl)nc1 | 1.6 | 200 | – | – | – |
| O=[N+]([O-])/C=C1\CCCN1Cc1ccc(Cl)nc1 | 1.6 | 200 | – | – | – |
| O=[N+]([O-])/C=C1\NCCN1Cc1ccc(Cl)nc1 | 0.32 | 8 | 40 | 200 | – |
| O=[N+]([O-])/N=C1\NCCN1Cc1ccc(Cl)nc1 [IMIDACLOPRID] | 0.32 | 40 | 200 | 200 | – |
| O=[N+]([O-])/N=c1\sccn1Cc1ccc(Cl)nc1 | 0.32 | 1000 | – | – | – |
| O=[N+]([O-])/C=C1\NCCS1 [2-(NITROMETHYLENE)THIAZOLIDINE] | 1000 | – | – | – | inactive |
